The values that follow come from patent US20070191324A1, “Methods for treatment or prophylaxis of aldosterone-mediated pathogenic effects in a subject using an epoxy-steroidal aldosterone antagonist” (priority 1999, published 2007).

Series [1] relates to L-NAME/Angiotensin II/NaCl-treated rats. The series can be described thus: L-NAME/Angiotensin II/NaCl model of cardiac and renal injury (Example A-1). Format: in vivo, Male Wistar rats. As to the method: Animals. Male Wistar rats (n=44), weighing 200 to 225 grams, and obtained from Charles River Laboratories (Wilmington, Mass.) were used in the study. All animals were housed in a room lighted 12 hours per day at an ambient temperature of 22±1° C. Animals were allowed one week to recover after arrival and had free access to Purina Lab Chow 5001 (Ralston Purina Inc, St. Louis, Mo.) and tap water until the initiation of the experiment. After initiation of the protocols, animals in all groups were placed in individual metabolic cages, handled and weighed daily. Twenty-four hour fluid intake, food intake and urine output were measured daily. […] On day 14 of L-NAME treatment, animals were decapitated, trunk blood was collected into chilled tubes containing ethylene diamine tetraacetic acid and the heart and kidneys were removed, blotted dry and immediately weighed. […] Drugs. Eplerenone was supplied by G.D. Searle Pharmaceuticals (St. […] Dexamethasone was dissolved in sesame oil and administered as a single subcutaneous dose (12 μg/kg/day) every day. This dose of dexamethasone has been reported to, maintain normal weight gain, glomerular filtration rate, and fasting plasma glucose and insulin levels in adrenalectomized rats. Stanton, B., Giebisch G et al. J. Clin. Invest 1985 75:1317-1326. The experiment was concluded on day 14 of L-NAME treatment. […] (Hou J et al. J. Clin. Invest 1995 96:2469-2477. […] This lower dose induced lesions in stroke-prone spontaneously hypertensive rats. (Rocha R et al. […] Dexamethasone, aldosterone and L-NAME were purchased from Sigma Chemical Co. (St. Louis, Mo.). […] Surgical Procedure. […] Bilateral adrenalectomy was performed using a dorsolumbar approach, making separate incisions on each side. […] No post operative deaths occurred. Assays and Analyses. Systolic blood pressure was measured in awake animals by tail-cuff plethysmography using a Natsume KN-210 manometer and tachometer (Peninsula Laboratories Inc, Belmont, Calif.). Rats were warmed at 37° C. for 10 minutes and allowed to rest quietly in a Lucite chamber before measurement of blood pressure. Urinary protein concentration was determined in urine collected on the last day of the experiment using the sulfosalicylic acid turbidity method. […] Plasma aldosterone concentration was determined using a standard radioimmunoassay-kit from Diagnostic Products Co. (Los Angeles, Calif.). Plasma renin activity (“PRA”) was determined by radioimmunoassay detection of generated angiotensin I (DiaSorin Inc., Stillwater, Minn.). Histology. Hearts were stained with collagen specific dye Sirius red for determination of fibrosis as reported elsewhere. (Young M et al. Am. J. Physiol 1995 269:[…]-[…]). Interstitial collagen was determined using an automated image analyzer. The hearts were also stained with hematoxylin and eosin for light microscopic analysis. Two or three slices of different sections of the heart containing both right and left ventricle were analyzed from each animal. […] Glomerular damage, when present, was characterized as the presence of either segmental or global sclerosis with ischemic or thrombotic changes. Renal arterial and arteriolar damage was categorized as the presence of fibrinoid necrosis of the vascular wall. The renal arterial and arteriolar profiles presenting damage were counted and the number of injured vessels per section was divided by the number of glomeruli in the same section in order to normalize for the amount of tissue examined. […] Statistical analysis. Data were tested for normality using the Kolmogorov-Smirnov test. Systolic blood pressure was analyzed using repeated measures-analysis of variance for time and treatment group. One-way analysis of variance was used for normally distributed data with one grouping variable. Post-hoc analysis was performed using Newman Keuls multiple-comparison test. Data that were not normally distributed were analyzed with the Kruskal-Wallis test. […]

Series [2] relates to aldosterone/salt uninephrectomized rats. Put plainly: Myocardial injury in aldosterone/salt uninephrectomized rats (Example A-6). It is filed as in vivo, Sprague Dawley rats. The conditions noted are these: eplerenone in chow 100 mg/k/d; aldosterone 0.75 ug/hr, 1% NaCl. The method, then: The rats were then implanted with Alzet mini pump that subcutaneously delivered either aldosterone (0.75 ug/hr) or vehicle. […] Blood pressure was measured by radio telemetry units implanted in abdominal aorta. Rats were sacrificed for examination of the hearts.

Series [3] is described as follows: Single dose pharmacokinetics, Japan and Ex-Japan trials (Example A-11). It is filed as in vivo, human. As to conditions: for Vd/F: male, human, in vivo, oral, single dose, least squares mean, read-out: Vss/F. As to the method: A total of 76 European subjects and 38 Japanese subjects participated in the single and multiple dose tolerability and food effect trials. Three of the studies were Ex-Japan studies and included doses ranging from 10 mg to 1000 mg. The other two studies were conducted in Japan and included doses ranging from 50 mg to 600 mg.
The […] trials included (i) a single dose tolerability trial, and (ii) a multiple dose tolerability trial, and (iii) a food effect study.
Both single dose and multiple dose tolerability trials were conducted in Japan utilizing healthy male Japanese subjects. […] Six subjects who received the 100 mg dose also participated in the food effect treatment arm of the single dose tolerability trial.
Combining single dose fasting pharmacokinetic data from all five studies, an analysis of variance with factors for country (Japan, Ex-Japan), study nested within country, and dose were performed on the dose-normalized Cmax and AUC values to assess the effect of country (population). Dose normalization was done to the lowest dose (10 mg for single dose, 100 mg for multiple dose). In the absence of intravenous data, the distribution volume (V/F) and clearance (CL/F) parameters are represented as the apparent values and are normalized to 70 kg of body weight. There were no statistically significant differences between the Japan and Ex-Japan trials in any of the pharmacokinetic parameters analyzed.
No statistically significant differences were noted between the Japan and ex-Japan population for any of the derived parameters evaluated.
Each panel consisted of six subjects who were given eplerenone and two subjects who were given placebo.

The subject of the next series is human subject. The series can be described thus: Blood pressure, plasma renin activity and serum aldosterone as a function of eplerenone dose (FIG. 10-12). It is filed as in vivo. As to conditions: increasing doses. The text has this: For example, appropriate dosing can be determined by monitoring systolic blood pressure. […] Accordingly, subjects can be treated with doses of one or more epoxy-steroidal compounds according to the present invention by increasing doses of such compounds in a step-wise manner until a minimal levels of systolic blood pressure decrease are achieved while, at the same time, also maintaining serum levels of potassium within the normal range. Similarly, appropriate dosing can also be determined by monitoring diastolic blood pressure. […] Accordingly, subjects can be treated with doses of one or more epoxy-steroidal compounds according to the present invention by increasing doses of such compounds in a step-wise manner until a minimal level of diastolic blood pressure change are achieved while, at the same time, also maintaining serum levels of potassium within the normal range. Appropriate dosing can also be determined by monitoring plasma renin activity. […] Accordingly, subjects can be treated with doses of one or more epoxy-steroidal compounds according to the present invention by increasing doses of such compounds in a step-wise manner until the desired level of plasma renin activity is achieved while, at the same time, maintaining serum levels of potassium within the normal range. Appropriate dosing can also be determined by monitoring serum aldosterone levels. […] Accordingly, subjects can be treated with doses of one or more epoxy-steroidal compounds according to the present invention by increasing doses of such compounds in a step-wise manner until the desired level of serum aldosterone is achieved while, at the same time, also maintaining serum levels of potassium within the normal range.

Like-named read-outs stand apart in the source and are kept apart here.

With `COC(=O)[C@@H]1CC2=CC(=O)CC[C@]2(C)[C@@]23O[C@@H]2C[C@@]2(C)[C@@H](CC[C@@]24CCC(=O)O4)[C@H]13` [Eplerenone, Pregn-4-ene-7,21-dicarboxylic acid, 9,11-epoxy-17-hydroxy-3-oxo-, γ-lactone, methyl ester, (7α, 11α, 17β)-], in series [1] (end of experiment (day 14), Epl 100 mg/kg/day p.o., ALDO 40 μg/kg/day in adrenalectomized rats), the “HW/BW (cardiac hypertrophy index)” value is given as “significantly reduced cardiac hypertrophy”. The SBP entry in series [1] (end of experiment, Epl 100 mg/kg/day p.o., ALDO 40 μg/kg/day in adrenalectomized rats) was “not appreciably influenced”. Moreover, the “urinary protein excretion (24 hour)” value in series [1] (end of two-week treatment, eplerenone 100 mg/kg/day p.o.) is “prevented the development of proteinuria”. Besides, the “cardiac injury / myocardial necrosis (histopathology)” value in series [1] (eplerenone 100 mg/kg/day p.o., vs L-NAME/Angiotensin II/NaCl) is “markedly reduced”. Further, the cardiac histopathologic damage entry in series [2] was “prevents the histopathologic damage”. Also, in series [3] (healthy Japanese male subjects, single doses 50-600 mg), the “clinical lab abnormalities and adverse events” value was “no adverse events were reported”. In addition, in series [3] (Ex-Japan), the Vd/F stood at 80.6 L. Further, the Vd/F in series [3] (Japan) worked out at 80.1 L. Further, the “systolic blood pressure as a function of dose” value in the series with human subject (FIG. 10) is recorded as “decreased systolic blood pressure”. Also, the “diastolic blood pressure as a function of dose” value in the series with human subject (FIG. 11) is “decreased diastolic blood pressure”. In addition, in the series on human subject (FIG. 12), the “plasma renin activity as a function of dose” value is listed as “increased levels of plasma renin activity” and the “serum aldosterone as a function of dose” value was “increased levels of serum aldosterone”.
